Measured values published in patent US7138361B2, “Herbicidal heterocycles” (E. I. du Pont de Nemours and Company, priority 2000, dated 2006).

Key:
Assay type in all cases: in vivo
[1] = tested on: Surinam grass (Brachiaria decumbens); assay: Test B preemergence
In short: (§1)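 Ratings on a 0 to 100 visual scale (100 complete control) compare treated plants with controls 13 to 15 days after application. Treatments were pre- or postemergence sprays of compound in non-phytotoxic solvent with surfactant.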

[2] = tested on: pigweed (Amaranthus retroflexus); assay: Test B preemergence
In short: as §1

[3] = tested on: crabgrass (Digitaria sanguinalis); assay: Test B preemergence
In short: as §1

[4] = tested on: cocklebur (Xanthium strumarium); assay: Test B preemergence
In short: as §1

rice (Oryza saliva) = assay: Test B preemergence
In short: as §1

[5] = tested on: giant foxtail (Setaria faberii); assay: Test B preemergence
In short: as §1

[6] = tested on: morning glory (Ipomoea hederacea); assay: Test B preemergence
In short: as §1

[7] = tested on: lambsquarters (Chenopodium album); assay: Test B preemergence
In short: as §1

[8] = tested on: velvetleaf (Abutilon theophrasti); assay: Test B preemergence
In short: as §1

[9] = tested on: barnyardgrass (Echinochloa crus-galli); assay: Test B preemergence
In short: as §1

corn (Zea mays) = assay: Test B preemergence
In short: as §1

[10] = tested on: Surinam grass (Brachiaria decumbens); assay: Test C preemergence
In short: (§2)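 Test chemicals, formulated in a non-phytotoxic solvent mixture with surfactant, were applied preemergence to planted seeds or postemergence to plants 2 to 18 cm tall (1- to 4-leaf stage). After 12 to 14 days in a greenhouse, injury was visually rated against untreated controls on a 0–100 scale.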

[11] = tested on: pigweed (Amaranthus retroflexus); assay: Test C preemergence
In short: as §2

Nightshade = assay: Test C preemergence
[12] = tested on: crabgrass (Digitaria sanguinalis); assay: Test C preemergence
In short: as §2

[13] = tested on: common ragweed (Ambrosia elatior); assay: Test C preemergence
In short: as §2

[14] = tested on: woolly cupgrass (Eriochloa villosa); assay: Test C preemergence
In short: as §2

[15] = tested on: cocklebur (Xanthium strumarium); assay: Test C preemergence
In short: as §2

soybean (Glycine max) = assay: Test C preemergence
In short: as §2

[16] = tested on: lambsquarters (Chenopodium album); assay: Test C preemergence
In short: as §2

[17] = tested on: goosegrass (Eleusine indica); assay: Test C preemergence
In short: as §2

[18] = Preemergence, Rate 500 g/ha, scale 0 to 100, 0 no effect, 100 complete control
[19] = preemergence, Rate 62 g/ha, scale of 0 to 100 where 0 is no effect and 100 is complete control, 13 to 15 days
[20] = preemergence, Rate 125 g/ha, scale of 0 to 100 where 0 is no effect and 100 is complete control, 13 to 15 days
[21] = preemergence, Rate 250 g/ha, scale 0 to 100, 0 no effect, 100 complete control
[22] = Rate 125 g/ha, scale 0 to 100, 0 no effect, 100 complete control
[23] = preemergence, Rate 31 g/ha, scale 0 to 100
[24] = preemergence, Rate 62 g/ha, scale 0 to 100
[25] = Rate 250 g/ha, scale 0 to 100, 0 no effect, 100 complete control

With `Cc1ccc(N2CCC(n3ccc(C(C)(C)C)n3)C2=O)cc1OCCCl` (centres unmarked) [Compound 109] the “Plant response rating, Surinam grass” value [1, 18] was 100, the “Plant response rating, Surinam grass” value [1, 19] was 20 and the “Plant response rating, Surinam grass” value [1, 20] was 50. For the same compound, the “Plant response rating, Surinam grass” value [1, 21] was 90, the “Plant response rating, Pigweed” value [2, 18] was 100 and the “Plant response rating, Pigweed” value [2, 19] was 100. For the same compound, the “Plant response rating, Pigweed” value [2, 20] was 100, the “Plant response rating, Pigweed” value [2, 21] was 100 and the “Plant response rating, Crabgrass” value [3, 18] was 100. The “Plant response rating, Crabgrass” value [3, 19] was 100, the “Plant response rating, Crabgrass” value [3, 20] was 100 and the “Plant response rating, Crabgrass” value [3, 21] was 100. The “Plant response rating, Cocklebur” value [4, 18] was 0, the “Plant response rating, Cocklebur” value [4, 19] was 0 and the “Plant response rating, Cocklebur” value [4, 20] was 0. For the same compound, the “Plant response rating, Cocklebur” value [4, 21] was 0, the “Plant response rating, Rice” value (rice (Oryza saliva); [18]) was 0 and the “Plant response rating, Rice” value (rice (Oryza saliva); [19]) was 0. For the same compound, the “Plant response rating, Rice” value (rice (Oryza saliva); [20]) was 0, the “Plant response rating, Rice” value (rice (Oryza saliva); [21]) was 0 and the “Plant response rating, Foxtail, Giant” value [5, 18] was 50. The “Plant response rating, Foxtail, Giant” value [5, 19] was 20, the “Plant response rating, Foxtail, Giant” value [5, 20] was 0 and the “Plant response rating, Foxtail, Giant” value [5, 21] was 100. The “Plant response rating, Morningglory” value [6, 18] was 0, the “Plant response rating, Morningglory” value [6, 19] was 0 and the “Plant response rating, Morningglory” value [6, 20] was 0. The “Plant response rating, Morningglory” value [6, 21] was 0, the “Plant response rating, Lambsquarters” value [7, 18] was 100 and the “Plant response rating, Lambsquarters” value [7, 19] was 100. For the same compound, the “Plant response rating, Lambsquarters” value [7, 20] was 100, the “Plant response rating, Lambsquarters” value [7, 21] was 100 and the “Plant response rating, Velvetleaf” value [8, 18] was 70. For the same compound, the “Plant response rating, Velvetleaf” value [8, 19] was 0, the “Plant response rating, Velvetleaf” value [8, 20] was 0 and the “Plant response rating, Velvetleaf” value [8, 21] was 60. For the same compound, the “Plant response rating, Barnyardgrass” value [9, 18] was 100, the “Plant response rating, Barnyardgrass” value [9, 19] was 0 and the “Plant response rating, Barnyardgrass” value [9, 20] was 30. The “Plant response rating, Barnyardgrass” value [9, 21] was 50, the “Plant response rating, Corn” value (corn (Zea mays); [18]) was 0 and the “Plant response rating, Corn” value (corn (Zea mays); [19]) was 0. The “Plant response rating, Corn” value (corn (Zea mays); [20]) was 0, the “Plant response rating, Corn” value (corn (Zea mays); [21]) was 0 and the “Plant response rating, Surinam grass” value [10, 22] was 80. For the same compound, the “Plant response rating, Surinam grass” value [10, 23] was 0, the “Plant response rating, Surinam grass” value [10, 24] was 0 and the “Plant response rating, Surinam grass” value [10, 21] was 90. For the same compound, the “Plant response rating, Pigweed” value [11, 22] was 70, the “Plant response rating, Pigweed” value [11, 23] was 20 and the “Plant response rating, Pigweed” value [11, 24] was 20. For the same compound, the “Plant response rating, Pigweed” value [11, 21] was 80, the “Plant response rating, Nightshade” value (Nightshade; Rate 31 g/ha, scale 0 to 100) was 50 and the “Plant response rating, Nightshade” value (Nightshade; Rate 62 g/ha, scale 0 to 100) was 90. The “Plant response rating, Nightshade” value (Nightshade; [22]) was 100, the “Plant response rating, Nightshade” value (Nightshade; [25]) was 100 and the “Plant response rating, Crabgrass” value [12, 22] was 100. The “Plant response rating, Crabgrass” value [12, 23] was 100, the “Plant response rating, Crabgrass” value [12, 24] was 100 and the “Plant response rating, Crabgrass” value [12, 21] was 100. The “Plant response rating, Ragweed, Common” value [13, 22] was 100, the “Plant response rating, Ragweed, Common” value [13, 23] was 10 and the “Plant response rating, Ragweed, Common” value [13, 24] was 90. The “Plant response rating, Ragweed, Common” value [13, 21] was 100, the “Plant response rating, Cupgrass, Woolly” value [14, 22] was 90 and the “Plant response rating, Cupgrass, Woolly” value [14, 23] was 10. For the same compound, the “Plant response rating, Cupgrass, Woolly” value [14, 24] was 90, the “Plant response rating, Cupgrass, Woolly” value [14, 21] was 100 and the “Plant response rating, Cocklebur” value [15, 22] was 30. For the same compound, the “Plant response rating, Cocklebur” value [15, 23] was 0, the “Plant response rating, Cocklebur” value [15, 24] was 0 and the “Plant response rating, Cocklebur” value [15, 21] was 30. For the same compound, the “Plant response rating, Soybean” value (soybean (Glycine max); [22]) was 90, the “Plant response rating, Soybean” value (soybean (Glycine max); [23]) was 20 and the “Plant response rating, Soybean” value (soybean (Glycine max); [24]) was 80. The “Plant response rating, Soybean” value (soybean (Glycine max); [21]) was 90, the “Plant response rating, Lambsquarters” value [16, 22] was 100 and the “Plant response rating, Lambsquarters” value [16, 23] was 100. The “Plant response rating, Lambsquarters” value [16, 24] was 100, the “Plant response rating, Lambsquarters” value [16, 21] was 100 and the “Plant response rating, Goosegrass” value [17, 22] was 100. The “Plant response rating, Goosegrass” value [17, 23] was 90, the “Plant response rating, Goosegrass” value [17, 24] was 100 and the “Plant response rating, Goosegrass” value [17, 21] was 100.
`CCOc1cc(N2CCC(n3ccc(C(C)(C)C)n3)C2=O)ccc1C` (centres unmarked) [Compound 106] was tested, and the “Plant response rating, Surinam grass” value [1, 18] was 100, the “Plant response rating, Surinam grass” value [1, 20] was 100 and the “Plant response rating, Pigweed” value [2, 18] was 100. For the same compound, the “Plant response rating, Pigweed” value [2, 20] was 100, the “Plant response rating, Crabgrass” value [3, 18] was 100 and the “Plant response rating, Crabgrass” value [3, 20] was 100. The “Plant response rating, Cocklebur” value [4, 18] was 100, the “Plant response rating, Cocklebur” value [4, 20] was 30 and the “Plant response rating, Rice” value (rice (Oryza saliva); [18]) was 100. For the same compound, the “Plant response rating, Rice” value (rice (Oryza saliva); [20]) was 0, the “Plant response rating, Foxtail, Giant” value [5, 18] was 60 and the “Plant response rating, Foxtail, Giant” value [5, 20] was 40. The “Plant response rating, Morningglory” value [6, 18] was 100, the “Plant response rating, Morningglory” value [6, 20] was 100 and the “Plant response rating, Lambsquarters” value [7, 18] was 100. For the same compound, the “Plant response rating, Lambsquarters” value [7, 20] was 100, the “Plant response rating, Velvetleaf” value [8, 18] was 100 and the “Plant response rating, Velvetleaf” value [8, 20] was 0. The “Plant response rating, Barnyardgrass” value [9, 18] was 100, the “Plant response rating, Barnyardgrass” value [9, 20] was 90 and the “Plant response rating, Corn” value (corn (Zea mays); [18]) was 30. The “Plant response rating, Corn” value (corn (Zea mays); [20]) was 30, the “Plant response rating, Surinam grass” value [10, 22] was 90 and the “Plant response rating, Surinam grass” value [10, 23] was 30. For the same compound, the “Plant response rating, Surinam grass” value [10, 24] was 90, the “Plant response rating, Surinam grass” value [10, 21] was 100 and the “Plant response rating, Pigweed” value [11, 22] was 100. The “Plant response rating, Pigweed” value [11, 23] was 70, the “Plant response rating, Pigweed” value [11, 24] was 100 and the “Plant response rating, Pigweed” value [11, 21] was 90. The “Plant response rating, Nightshade” value (Nightshade; Rate 31 g/ha, scale 0 to 100) was 100, the “Plant response rating, Nightshade” value (Nightshade; Rate 62 g/ha, scale 0 to 100) was 100 and the “Plant response rating, Nightshade” value (Nightshade; [22]) was 100. The “Plant response rating, Nightshade” value (Nightshade; [25]) was 100, the “Plant response rating, Crabgrass” value [12, 22] was 100 and the “Plant response rating, Crabgrass” value [12, 23] was 100. The “Plant response rating, Crabgrass” value [12, 24] was 100, the “Plant response rating, Crabgrass” value [12, 21] was 100 and the “Plant response rating, Ragweed, Common” value [13, 22] was 100. For the same compound, the “Plant response rating, Ragweed, Common” value [13, 23] was 80, the “Plant response rating, Ragweed, Common” value [13, 24] was 100 and the “Plant response rating, Ragweed, Common” value [13, 21] was 100. For the same compound, the “Plant response rating, Cupgrass, Woolly” value [14, 22] was 100, the “Plant response rating, Cupgrass, Woolly” value [14, 23] was 60 and the “Plant response rating, Cupgrass, Woolly” value [14, 24] was 100. The “Plant response rating, Cupgrass, Woolly” value [14, 21] was 100, the “Plant response rating, Cocklebur” value [15, 22] was 90 and the “Plant response rating, Cocklebur” value [15, 23] was 70. For the same compound, the “Plant response rating, Cocklebur” value [15, 24] was 90, the “Plant response rating, Cocklebur” value [15, 21] was 100 and the “Plant response rating, Soybean” value (soybean (Glycine max); [22]) was 100. The “Plant response rating, Soybean” value (soybean (Glycine max); [23]) was 80, the “Plant response rating, Soybean” value (soybean (Glycine max); [24]) was 100 and the “Plant response rating, Soybean” value (soybean (Glycine max); [21]) was 100. The “Plant response rating, Lambsquarters” value [16, 22] was 100, the “Plant response rating, Lambsquarters” value [16, 23] was 100 and the “Plant response rating, Lambsquarters” value [16, 24] was 100. For the same compound, the “Plant response rating, Lambsquarters” value [16, 21] was 100, the “Plant response rating, Goosegrass” value [17, 22] was 100 and the “Plant response rating, Goosegrass” value [17, 23] was 100. For the same compound, the “Plant response rating, Goosegrass” value [17, 24] was 100 and the “Plant response rating, Goosegrass” value [17, 21] was 100.
